From patent US9237744B2, “Preservative solution for cells, tissues and organs containing rare sugar and preservative method thereof” (NATIONAL UNIVERSITY CORPORATION KAGAWA UNIVERSITY, priority 2004, dated 2016)

Key:
[1] = test system: HFB cells and NIH3T3 cells; assay: Proliferation ability after freeze-preservation with Cell Banker containing rare sugar (Example 1); format: cell-based, human, mouse; settings: sugar added to Cell Banker, versus Cell Banker alone (FIG. 3)
Protocol: (§1) 1. Cells used: Hela (human cervical cancer), OVCAR-3 (human ovarian cancer), HuH-7 (human liver cancer), HaCaT (human skin keratinocyte), HFB (human fibroblast) and NIH3T3 (mouse fibroblast). Saccharides D-allose and the like were added to culture medium, Cell Banker (commercially available preservative solution) and DMSO at concentrations of 25 mM and 50 mM. Monosaccharides such as D-glucose, D-fructose, D-mannose and D-galactose which are present in nature in large quantities and D-allose, D-psicose, D-altrose, allitol, D-talitol and L-sorbose as rare sugars were used. Further, trehalose as disaccharide was used. The cells were preserved for 24 hours by being frozen at −80° C. 2) Cell growth: One day later, the cells were thawed, and 0.25˜2×10^4 cells/well were spread on 96-well plate with 0.1 mL medium. After a prescribed period of time, the cell growth was measured by MTT assay. 3) Then, the rare sugar was added to Cell Banker which was widely used for freeze-preservation of cells, and an effect of preservability was comparatively studied.

HFB (human fibroblast) = assay: Cell growth after thawing of freeze-preserved cells, MTT assay (Example 1); format: cell-based; settings: culture medium plus sugar, in comparison with other cases (FIG. 2)
Protocol: as §1, with “assay.” for “assay. 3) Then, the rare sugar was added to Cell Banker which was widely used for freeze-preservation of cells, and an effect of preservability was comparatively studied.”

[2] = test system: Hela, OVCAR-3, HaCaT, HFB and NIH3T3 cells; assay: Survival rate of cells after freeze-preservation at high sugar concentration, trypan blue (Example 2); format: cell-based, human, mouse; settings: sugar-containing medium in comparison with medium alone (FIG. 7)
Protocol: 1. Cells used: Hela (human cervical cancer), OVCAR-3 (human ovarian cancer), HaCaT (human skin keratinocyte), HFB (human fibroblast) and NIH3T3 (mouse fibroblast). Saccharides D-allose and the like were added to culture medium, Cell Banker (commercially available preservative solution) and DMSO at concentrations of 0.2, 0.4, 0.6, 0.8 and 1M. Monosaccharides such as D-glucose, D-fructose, D-mannose and D-galactose which are present in nature in large quantities and D-allose, D-altrose, D-psicose, L-psicose, D-sorbose, L-sorbose, D-tagatose, L-tagatose and L-fructose as rare sugars were used. Further, trehalose as disaccharide was used. The cells frozen with D-allose were freeze-preserved at −80° C. and in liquid nitrogen for 24 hours, 1 week and 4 weeks. 1) Survival rate of cells: The cells were thawed, and the survival rate was estimated by a trypan blue dying method.

[3] = test system: Hela, OVCAR-3, HaCaT, HFB and NIH3T3 cells; assay: Cell growth after thawing of cells freeze-preserved at optimum concentrations, MTT assay (Example 2); format: cell-based, human, mouse; settings: freeze-preserved 24 hours at optimum concentration, versus other cases (FIG. 8)
Protocol: 1. Cells used: Hela (human cervical cancer), OVCAR-3 (human ovarian cancer), HaCaT (human skin keratinocyte), HFB (human fibroblast) and NIH3T3 (mouse fibroblast). Saccharides D-allose and the like were added to culture medium, Cell Banker (commercially available preservative solution) and DMSO at concentrations of 0.2, 0.4, 0.6, 0.8 and 1M. Monosaccharides such as D-glucose, D-fructose, D-mannose and D-galactose which are present in nature in large quantities and D-allose, D-altrose, D-psicose, L-psicose, D-sorbose, L-sorbose, D-tagatose, L-tagatose and L-fructose as rare sugars were used. Further, trehalose as disaccharide was used. The cells frozen with D-allose were freeze-preserved at −80° C. and in liquid nitrogen for 24 hours, 1 week and 4 weeks. 2) Cell growth: The cells were freeze-preserved with D-allose and trehalose at optimum concentrations for 24 hours, thawed, and spread on a 96-well plate such that the concentration was 0.5-1×10^4 cells/well/0.1 ml. After a prescribed period of time, the cell growth was measured by MTT assay.

## OC[C@H]1O[C@H](O[C@H]2O[C@H](CO)[C@@H](O)[C@H](O)[C@H]2O)[C@H](O)[C@@H](O)[C@@H]1O [trehalose, reference compound]
[1]
  proliferation ability after freeze-preservation: nearly the same effect was obtained
HFB (human fibroblast)
  growth rate of cells after thawing: nearly the same effect was obtained
[2]
  number of cells survived (trypan blue dying): the same
[3]
  growth rate of cells after thawing: nearly the same effect was obtained
